Test results taken from patent publication US20250059174A1, “Pharmaceutical Compounds and Compositions as C-Kit Kinase Inhibitors” (Enanta Pharmaceuticals, Inc., priority 2023, published 2025).
pEC50, pIC50: −log10 of the molar value.

What was measured:
[1] = target: Recombinant human c-KIT kinase (Homo sapiens (Human), UniProt P10721); experiment: c-KIT kinase chemiluminescence assay (ADP-Glo); type: biochemical; conditions: ATP 50 μM
In short: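 ADP formed by c-KIT on polyEY over 2 h at RT (after 30 min enzyme preincubation; Tris pH 7.5, MgCl2, BSA, DTT buffer) was detected by ADP-Glo luminescence. IC50 and Hill slope were fitted to control-normalized activity across compound concentrations.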

[2] = system: M-07e cells; experiment: M-07e cellular assay (SCF-mediated cell proliferation); type: cell-based; conditions: Homo sapiens, 72 hours, CellTiter Glo
In short: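 CellTiter Glo luminescence after 72 h compound exposure in SCF (EC90)-stimulated M-07e cells expressing endogenous human c-KIT.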

Recombinant human c-KIT kinase, sequence (P10721 26-976): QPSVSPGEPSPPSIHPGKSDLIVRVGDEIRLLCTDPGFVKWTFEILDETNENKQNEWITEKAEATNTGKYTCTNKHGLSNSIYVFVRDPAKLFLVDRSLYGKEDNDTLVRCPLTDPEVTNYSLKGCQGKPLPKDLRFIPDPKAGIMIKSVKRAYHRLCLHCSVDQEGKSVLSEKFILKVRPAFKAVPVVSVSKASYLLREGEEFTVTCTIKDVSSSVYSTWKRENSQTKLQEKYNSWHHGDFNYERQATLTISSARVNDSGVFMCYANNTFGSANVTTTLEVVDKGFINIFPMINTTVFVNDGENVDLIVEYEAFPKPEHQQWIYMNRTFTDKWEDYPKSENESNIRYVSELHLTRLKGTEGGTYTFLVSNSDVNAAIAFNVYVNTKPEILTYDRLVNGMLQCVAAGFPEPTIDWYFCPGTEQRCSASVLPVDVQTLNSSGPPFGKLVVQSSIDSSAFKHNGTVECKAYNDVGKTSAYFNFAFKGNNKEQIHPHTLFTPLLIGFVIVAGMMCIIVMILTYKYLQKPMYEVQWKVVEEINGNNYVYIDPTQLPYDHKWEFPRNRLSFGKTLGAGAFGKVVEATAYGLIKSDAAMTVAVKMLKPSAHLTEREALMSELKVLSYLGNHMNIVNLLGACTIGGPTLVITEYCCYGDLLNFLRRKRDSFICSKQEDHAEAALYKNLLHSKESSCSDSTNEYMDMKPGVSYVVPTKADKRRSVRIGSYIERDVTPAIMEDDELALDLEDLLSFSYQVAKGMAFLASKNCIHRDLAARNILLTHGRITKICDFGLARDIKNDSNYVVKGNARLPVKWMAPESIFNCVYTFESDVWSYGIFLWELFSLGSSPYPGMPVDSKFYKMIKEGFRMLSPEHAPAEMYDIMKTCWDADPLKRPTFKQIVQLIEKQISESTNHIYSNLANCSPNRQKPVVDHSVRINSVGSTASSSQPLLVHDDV

Structure (SMILES)	pIC50 [1]	pEC50 [2]
Cc1sc(-c2ncc(C3CC3)cn2)cc1NC(=O)c1cnn2ccc(N3CC4(C3)CC(O)(C(F)F)C4)cc12 [Example 346]	> 7.00	> 7.00
Cc1sc(-c2nccc(C3CC3)n2)cc1NC(=O)c1cnn2ccc(N3CC4(C3)CC(O)(C(F)F)C4)cc12 [Example 347]	6.00 to 7.00	6.00 to 7.00
O=C(Nc1cc(-c2ccc(C3CC3)cn2)ccc1Cl)c1cnn2ccc(N3CC4(COC4)C3)cc12 [Example 350]	< 6.00	< 6.00
Cc1ccc(-c2ccc(C3CC3)cn2)cc1NC(=O)c1cnn2ccc(N3CC4(C3)CC(O)(C(F)F)C4)cc12 [Example 351]	> 7.00	> 7.00
Cc1ccc(-c2cnc(C3CC3)nc2)cc1NC(=O)c1cnn2ccc(N3CC4(C3)CC(O)(C(F)F)C4)cc12 [Example 353]	> 7.00	> 7.00
Cc1ccc(-c2cnc(N3CC(O)(C(F)(F)F)C3)nc2)cc1NC(=O)c1cnn2ccc(N3CC4(COC4)C3)cc12 [Example 354]	> 7.00	> 7.00
Cc1ncc(-c2ccc(C3CC3)cn2)cc1NC(=O)c1cnn2ccc(N3CC4(C3)CC(O)(C(F)F)C4)cc12 [Example 356]	> 7.00	> 7.00
Cc1ncc(-c2ncc(OC(F)(F)F)cn2)cc1NC(=O)c1cnc(-c2ccc3c(c2)CC(=O)N3)o1 [Example 358, N-(2-methyl-5-(5-(trifluoromethoxy)pyrimidin-2-yl)pyridin-3-yl)-2-(2-oxoindolin-5-yl)oxazole-5-carboxamide]	< 6.00	6.00 to 7.00
Cc1ccc(-c2ncc(OC(F)F)cn2)cc1NC(=O)c1cnc(-c2ccc3c(c2)CC(=O)N3)o1 [Example 359]	6.00 to 7.00	6.00 to 7.00
Cc1ncc(-c2ncc(OC(F)F)cn2)cc1NC(=O)c1cnc(-c2ccc3c(c2)CC(=O)N3)o1 [Example 362]	6.00 to 7.00	6.00 to 7.00
Cc1ccc(-c2ncc(OC(F)F)cn2)cc1NC(=O)c1cnn2ccc(-c3c(C)nc(N)nc3C)cc12 [Example 366]	< 6.00	6.00 to 7.00
Cc1ccc(-c2ncc(OC(F)(F)F)cn2)cc1NC(=O)c1cnn2ccc(-c3c(C)nc(N)nc3C)cc12 [Example 367]	6.00 to 7.00	6.00 to 7.00
Cc1ncc(-c2ncc(C3CC3)cn2)cc1NC(=O)c1cnn2ccc(-c3c(C)nc(N)nc3C)cc12 [Example 371-1]	< 6.00	6.00 to 7.00
Cc1ncc(-c2cn(C3CC3)nn2)cc1NC(=O)c1cnn2ccc(N3CC4(C3)CC(O)(C(F)F)C4)cc12 [Example 377]	6.00 to 7.00	> 7.00

Now from value to molecule, other results behind:

pIC50 [1]	Structure (SMILES)	pEC50 [2]
> 7.00	Cc1ccc(-c2ncc(C(C)C)cn2)cc1NC(=O)c1cnn2ccc(N3CC4(COC4)C3)cc12 [Example 345]	> 7.00
> 7.00	Cc1ccc(-c2ncc(OC(F)(F)F)cn2)cc1NC(=O)c1cnn2ccc(N3CC4(COC4)C3)cc12 [Example 348]	> 7.00
> 7.00	Cc1ccc(-c2ccc(C(C)C)cn2)cc1NC(=O)c1cnn2ccc(N3CC4(COC4)C3)cc12 [Example 349]	> 7.00
< 6.00	O=C(Nc1cc(-c2ccc(C3CC3)cn2)ccc1Cl)c1cnn2ccc(N3CC4(C3)CC(O)(C(F)F)C4)cc12 [Example 352]	< 6.00
6.00 to 7.00	Cc1sc(-c2cnc(C3CC3)nc2)cc1NC(=O)c1cnn2ccc(N3CC4(C3)CC(O)(C(F)F)C4)cc12 [Example 355]	> 7.00
6.00 to 7.00	Cc1ncc(-c2ccc(C3CC3)cn2)cc1NC(=O)c1cnn2ccc(N3CC4(COC4)C3)cc12 [Example 357]	> 7.00
6.00 to 7.00	Cc1ccc(-c2ncc(OC(F)(F)F)cn2)cc1NC(=O)c1cnc(-c2ccc3c(c2)CC(=O)N3)o1 [Example 360]	6.00 to 7.00
6.00 to 7.00	Cc1ncc(-c2ncc(C3CC3)cn2)cc1NC(=O)c1cnc(-c2ccc3c(c2)CC(=O)N3)o1 [Example 361]	6.00 to 7.00
> 7.00	Cc1ccc(-c2ncc(C3CC3)cn2)cc1NC(=O)c1cnc(-c2ccc3c(c2)CC(=O)N3)o1 [Example 363]	> 7.00
6.00 to 7.00	Cc1ccc(-c2ncc(C3CC3)cn2)cc1NC(=O)c1cnn2ccc(-c3c(C)nc(N)nc3C)cc12 [Example 365]	> 7.00
6.00 to 7.00	Cc1ccc(-c2nnc([C@H]3C[C@@H]3F)o2)cc1NC(=O)c1cnc(-c2ccc3c(c2)CC(=O)N3)o1 [Example 374]	6.00 to 7.00
